From US11180504B2 (ORCHID PHARMA LTD., priority 2016, dated 2021)
Converted amounts (≈) assume the structure as drawn.

Assays:
[1] = test system: carbapenem sensitive Pseudomonas aeruginosa; test: MIC by broth micro-dilution (CLSI), carbapenem sensitive P. aeruginosa; type: cell-based; details: Pseudomonas aeruginosa, ATCC27853, Meropenem susceptible P. aeruginosa ATCC27853; read-out: MIC
[2] = test system: carbapenemase producing K. pneumoniae; test: MIC by broth micro-dilution (CLSI), carbapenemase producing K. pneumoniae; type: cell-based, Klebsiella pneumoniae; details: Klebsiella pneumoniae, ATCCBAA1705, KPC-2 K. pneumoniae ATCC BAA-1705; read-out: MIC
[3] = test system: methicillin-sensitive Staphylococcus aureus; test: MIC by broth micro-dilution (CLSI), methicillin-sensitive S. aureus; type: cell-based; details: Staphylococcus aureus, ATCC 29213 / MSSA, MSSA S. aureus ATCC29213; read-out: MIC
[4] = test system: carbapenem sensitive Escherichia coli; test: MIC by broth micro-dilution (CLSI), carbapenem sensitive E. coli; type: cell-based; details: Escherichia coli, ATCC25922, ESBL −ve E. coli ATCC25922; read-out: MIC

Structure (SMILES)	MIC [1]	MIC [2]	MIC [3]	MIC [4]
Cc1nnnn1CC(=O)N[C@H](C)[C@H]1C(=O)N2C(C(=O)O)=C(S[C@@H]3CN[C@H](C(=O)N4CC[C@@H](N)C4)C3)[C@H](C)[C@H]12 [Example 331, (4R,5S,6R)-3-((3S,5S)-5-((R)-3-aminopyrrolidine-1-carbonyl)pyrrolidin-3-ylthio)-4-methyl-6-((R) - 1-(2-(5-methyl-1H-tetrazal-1-yl)acetamido)ethyl)-7-oxo-1-azabicyclo[3.2.0]hept-2-ene-2-carboxylic acid]	8 µg/mL (≈ 14.6 µM)	4 µg/mL (≈ 7.3 µM)	4 µg/mL (≈ 7.3 µM)	0.25 µg/mL (≈ 0.457 µM)
C[C@@H](NC(=O)Cn1cnnn1)[C@H]1C(=O)N2C(C(=O)O)=C(S[C@@H]3CN[C@H](C(=O)N4CCC(C)(N)CC4)C3)[C@H](C)[C@H]12 [Example 332, (4R,5S,6R)-6-((R) - 1-(2-(1H-tetrazol-1-yl)acetamido)ethyl)-3-((3S,5S)-5-(4-amino-4-methylpiperidine-1-carbonyl)pyrrolidin-3-ylthio)-4-methyl-7-oxo-1-azabicyclo[3.2.0]hept-2-ene-2-carboxylic acid]	8 µg/mL (≈ 14.2 µM)	4 µg/mL (≈ 7.12 µM)	8 µg/mL (≈ 14.2 µM)	1 µg/mL (≈ 1.78 µM)
C[C@@H](NC(=O)Cn1cnnn1)[C@H]1C(=O)N2C(C(=O)O)=C(S[C@@H]3CN[C@H](C(=O)N4CC5C(N)C5C4)C3)[C@H](C)[C@H]12 (stereo partly drawn) [Example 333, (4R,5S,6R)-6-((R) - 1-(2-(1H-tetrazol-1-yl)acetamido)ethyl)-3-((3S,5S)-5-(6-amino-3-azabicyclo[3.1.0]hexane-3-carbonyl)pyrrolidin-3-ylthin)-4-methyl-7-oxo-1-azabicyclo[3.2.0]hept-2-ene-2-carboxylic acid]	4 µg/mL (≈ 7.33 µM)	4 µg/mL (≈ 7.33 µM)	8 µg/mL (≈ 14.7 µM)	0.5 µg/mL (≈ 0.916 µM)
C[C@@H](NC(=O)Cn1nnc(C(F)(F)F)n1)[C@H]1C(=O)N2C(C(=O)O)=C(S[C@@H]3CN[C@H](C(=O)N4CC[C@@H](N)C4)C3)[C@H](C)[C@H]12 [Example 334, (4R,5S,6R)-3-((3S,5S)-5-((R)-3-aminopyrrolidine-1-carbonyl)pyrrolidin-3-ylthio)-4-methyl-7-oxo-6-((R) - 1-(2-(5-(trifluoromethyl)-2H-tetrazol-2-yl)acetamido)ethyl) - 1-azabicyclo[3.2.0]hept-2-ene-2-carboxylic acid]	128 µg/mL (≈ 213 µM)	32 µg/mL (≈ 53.2 µM)	4 µg/mL (≈ 6.65 µM)	0.5 µg/mL (≈ 0.831 µM)
C[C@@H](NC(=O)Cn1nnc(C(F)(F)F)n1)[C@H]1C(=O)N2C(C(=O)O)=C(S[C@@H]3CN[C@H](C(=O)N(C)C)C3)[C@H](C)[C@H]12 [Example 335, (4R,5S,4R)-3-((3S,5S)-5-(dimethylcarbamoyl)pyrrolidin-3-ylthio)-4-methyl-7-oxo-6-((R) - 1-(2-(5-(trifluoromethyl)-2H-tetrazol-2-yl)acetamido)ethyl) - 1-azabicyclo[3.2.0]hept-2-ene-2-carboxylic acid]	> 128 µg/mL	64 µg/mL (≈ 114 µM)	4 µg/mL (≈ 7.14 µM)	1 µg/mL (≈ 1.78 µM)
C[C@@H](NC(=O)Cn1cnnn1)[C@H]1C(=O)N2C(C(=O)O)=C(S[C@@H]3CN[C@H](C(=O)N4CCC[C@@H](N)C4)C3)[C@H](C)[C@H]12 [Example 336, (4R,5S,6R)-6-((R) - 1-(2-(1H-tetrazol-1-yl)acetamido)ethyl)-3-((3S,5S)-5-((R)-3-aminopiperidine-1-carbonyl)pyrrolidin-3-ylthio)-4-methyl-7-oxo-1-azabicyclo[3.2.0]hept-2-ene-2-carboxylic acid]	8 µg/mL (≈ 14.6 µM)	4 µg/mL (≈ 7.3 µM)	4 µg/mL (≈ 7.3 µM)	1 µg/mL (≈ 1.83 µM)
C[C@@H]1C(S[C@@H]2CN[C@H](C(=O)N(C)C)C2)=C(C(=O)O)N2C(=O)[C@H]([C@@H](C)NC(=O)C(F)F)[C@@H]12 [Example 337, (4S,5S,6R)-6-((R) - 1-(2,2-difluoroacetamido)ethyl)-3-((3S,5S)-5-(dimethylcarbamoyl)pyrrolidin-3-ylthio)-4-methyl-7-oxo-1-azabicyclo[3.2.0]hept-2-ene-2-carboxylic acid]	32 µg/mL (≈ 69.5 µM)	1 µg/mL (≈ 2.17 µM)	2 µg/mL (≈ 4.34 µM)	0.5 µg/mL (≈ 1.09 µM)
CCOC(=O)c1nnnn1CC(=O)N[C@H](C)[C@H]1C(=O)N2C(C(=O)O)=C(S[C@@H]3CN[C@H](C(=O)N(C)C)C3)[C@H](C)[C@H]12 [Example 338, (4R,5S,6R)-3-((3S,5S)-5-(dimethylcarbamoyl)pyrrolidin-3-ylthio)-6-((R) - 1-(2-(5-(ethoxycarbonyl) - 1H-tetrazol-1-yl)acetamido)ethyl)-4-methyl-7-oxo-1-azabicyclo[3.2.0]hept-2-ene-2-carboxylic acid]	128 µg/mL (≈ 227 µM)	32 µg/mL (≈ 56.7 µM)	8 µg/mL (≈ 14.2 µM)	2 µg/mL (≈ 3.54 µM)
CCOC(=O)c1nnnn1CC(=O)N[C@H](C)[C@H]1C(=O)N2C(C(=O)O)=C(S[C@@H]3CN[C@H](C(=O)N4CC[C@@H](N)C4)C3)[C@H](C)[C@H]12 [Example 339, (4R,5S,6R)-3-((3S,5S)-5-((R)-3-aminopyrrolidine-1-carbonyl)pyrrolidin-3-ylthio)-6-((R) - 1-(2-(5-(ethoxycarbonyl) - 1H-tetrazol-1-yl)acetamido)ethyl)-4-methyl-7-oxo-1-azabicyclo[3.2.0]bept-2-ene-2-carboxylic acid]	32 µg/mL (≈ 52.8 µM)	32 µg/mL (≈ 52.8 µM)	8 µg/mL (≈ 13.2 µM)	1 µg/mL (≈ 1.65 µM)
C[C@@H](NC(=O)Cn1cnnn1)[C@H]1C(=O)N2C(C(=O)O)=C(S[C@@H]3CN[C@H](C(=O)N4CCC(N)CC4)C3)[C@H](C)[C@H]12 [Example 340, (4R,5S,6R)-6-((R) - 1-(2-(1H-tetrazol-1-yl)acetamido)ethyl)-3-((3S,5S)-5-(4-aminopiperidine-1-carbonyl)pyrrolidin-3-ylthio)-4-methyl-7-oxo-1-azabicyclo[3.2.0]hept-2-ene-2-carboxylic acid]	4 µg/mL (≈ 7.3 µM)	4 µg/mL (≈ 7.3 µM)	8 µg/mL (≈ 14.6 µM)	1 µg/mL (≈ 1.83 µM)
C[C@@H](NC(=O)Cn1cnnn1)[C@H]1C(=O)N2C(C(=O)O)=C(S[C@@H]3CN[C@H](C(=O)N4CCC[C@H](N)C4)C3)[C@H](C)[C@H]12 [Example 341, (4R,5S,6R)-6-((R) - 1-(2-(1H-tetrazol-1-yl)acetamido)ethyl)-3-((3S,5S)-5-((S)-3-aminopiperidin-1-carbonyl)pyrrolidin-3-ylthio)-4-methyl-7-oxo-1-azabicycio[3.2.0]hept-2-ene-2-carboxylic acid]	8 µg/mL (≈ 14.6 µM)	4 µg/mL (≈ 7.3 µM)	4 µg/mL (≈ 7.3 µM)	1 µg/mL (≈ 1.83 µM)
C[C@@H](NC(=O)Cn1cnnn1)[C@H]1C(=O)N2C(C(=O)O)=C(S[C@@H]3CN[C@H](C(=O)N4CCC(N5CC(N)C5)CC4)C3)[C@H](C)[C@H]12 [Example 342, (4R,5S,6R)-6-((R) - 1-(2-(1H-tetrazol-1-yl)acetamido)ethyl)-3-((3S,5S)-5-(4-(3-aminoazetidin-1-yl)piperidine-1-carbonyl)pyrrolidin-3-ylthino)-4-methyl-7-oxo-1-azabicyclo[3.2.0]hept-2-ene-2-carboxylic acid]	8 µg/mL (≈ 13.3 µM)	8 µg/mL (≈ 13.3 µM)	16 µg/mL (≈ 26.5 µM)	2 µg/mL (≈ 3.32 µM)
